From patent publication US5583218A, “Carbapenem derivatives” (Daiichi Pharmaceutical Co., Ltd., priority 1988, dated 1996)
≈ marks a conversion by molar mass, not a printed value. Like-named read-outs stand apart in the source and are kept apart here.

Key:
[1] = system: Ps. aeruginosa 32233; assay: Minimum inhibitory concentration against Ps. aeruginosa 32233; format: cell-based; conditions: Pseudomonas aeruginosa
[2] = system: C. difficile GAI-0747; assay: Minimum inhibitory concentration against C. difficile GAI-0747; format: cell-based, Clostridium difficile; conditions: Clostridioides difficile, GAI0747
[3] = system: S. aureus 209P; assay: Minimum inhibitory concentration against S. aureus 209P; format: cell-based; conditions: Staphylococcus aureus
[4] = system: Ent. cloacae 03400; assay: Minimum inhibitory concentration against Ent. cloacae 03400; format: cell-based; conditions: Enterobacter cloacae
[5] = system: Ser. marcescens 10104; assay: Minimum inhibitory concentration against Ser. marcescens 10104; format: cell-based, Serratia marcescens
[6] = system: E. coli NIHJ; assay: Minimum inhibitory concentration against E. coli NIHJ; format: cell-based; conditions: Escherichia coli
[7] = system: gram-positive and gram-negative bacteria, obligate anaerobes, strains resistant to penicillins and cepharosporins; conditions: bacteria resistant to penicillin and cepharosporin antibiotics; background art; cited from earlier work
[8] = Serratia marcescens, Ser. marcescens 10104, read-out: Minimum Inhibitory Concentration (MIC)

SMILES: C[C@@H](O)[C@H]1C(=O)N2C(C(=O)O)=C(SC3Cc4cncn4C3)[C@H](C)[C@H]12 (single isomer, unassigned) [Compound 1]
- MIC [1]: 6.25 µg/mL (≈ 17.9 µM)
- MIC [2]: 3.13 µg/mL (≈ 8.96 µM)
- MIC [3]: < 0.1 µg/mL
- MIC [4]: < 0.1 µg/mL
- MIC [5, 8]: < 0.1 µg/mL
- MIC [6]: < 0.1 µg/mL

SMILES: C[C@@H](O)[C@H]1C(=O)N2C(C(=O)O)=C(SCCN=CN)C[C@H]12 [MK-0787, reference compound]
- MIC [1]: 1.56 µg/mL (≈ 5.21 µM)
- MIC [2]: 50 µg/mL (≈ 167 µM)
- MIC [3]: < 0.1 µg/mL
- MIC [4]: 0.78 µg/mL (≈ 2.61 µM)
- MIC ([5]; Serratia marcescens, 10104, read-out: Minimum Inhibitory Concentration (MIC)): 1.56 µg/mL (≈ 5.21 µM)
- MIC [6]: 0.2 µg/mL (≈ 0.668 µM)

SMILES: C[C@@H](O)[C@H]1C(=O)N2C(C(=O)O)=C(SC3Cc4nccn4C3)[C@H](C)[C@H]12 (single isomer, unassigned) [Compound 2]
- MIC [1]: 6.25 µg/mL (≈ 17.9 µM)
- MIC [2]: 1.56 µg/mL (≈ 4.46 µM)
- MIC [3]: < 0.1 µg/mL
- MIC [4]: < 0.1 µg/mL
- MIC [5, 8]: < 0.1 µg/mL
- MIC [6]: < 0.1 µg/mL

SMILES: C[C@@H](O)[C@H]1C(=O)N2C(C(=O)O)=C(SCCN)C[C@H]12 [Thienamycin]
- antibacterial activity [7]: effective even against bacteria resistant to penicillin and cepharosporin antibiotics
